Results from patent US6143764A, “Quinoline and quinazoline derivatives inhibiting platelet-derived growth factor receptor autophosphorylation and pharmaceutical compositions containing the same” (priority 1995, dated 2000).
Like-named read-outs stand apart in the source and are kept apart here.

Legend:
COL-1 (colon) = test: Antitumor effect against COL-1 colon tumor in nude mice; type: in vivo; details: 100 mg/kg intraperitoneally once a day, 9 days
Procedure: (§1) Human glioma, GLO7 (obtained from the Central Institute for Experimental Animals), was transplanted into nude mice. When the tumor had grown to a volume of about 100 mm^3, the nude mice were divided into several groups of 4 animals so as to equalize the average tumor volumes of each group. The test drug was administered orally to animals in experimental groups 2 times a day for 14 consecutive days at 100 mg/kg, and the vehicle was administered to control animals. The tumor growth inhibition rate (TGIR, %) was calculated from the equation: TGIR=(1-Tx/Cx)×100, in which Cx is the tumor volume in the control mice and Tx is the tumor volume in the drug-treated mice, on day X, when the initial tumor volume at the time treatment was commenced is set 1.
(§2) In the same manner as described in 2, various types of tumor cells (obtained from the Central Institute for Experimental Animals) were transplanted into nude mice. When the tumor had grown to a volume of about 100 mm^3, the animals were allocated to several groups each consisting of 4 animals so as to equalize the average tumor volume of each group. Test drugs were administered intraperitoneally to animals in experimental groups once a day for 9 consecutive days at 100 mg/kg, and the vehicle was administered to control animals.

[1] = system: human glioma cells (GLO7); test: Antitumor effect of compound number 43 against human glioma (GLO7), nude mice xenograft; type: in vivo; details: 100 mg/kg orally 2 times a day, 14 days, test period about 4 weeks
Procedure: as §1, with “1. During the test period of about 4 weeks, the maximum TGIR value was 76%, and thus an excellent antitumor effect was observed.” for “1.”

[2] = system: collagen-induced arthritis in mice; test: Effect on collagen-induced arthritis in mice; type: in vivo, mouse (DBA/lJNCrj); details: for Number of mice with arthritis/total mice: 16 days; for Incidence of collagen-induced arthritis: 16 days (vehicle 70)
L-27 (lung) = test: Antitumor effect against L-27 lung tumor in nude mice; type: in vivo; details: 100 mg/kg intraperitoneally once a day, 9 days
Procedure: as §1, §2

PDGF receptor = molecular target: T1, PDGF receptor (Rattus norvegicus, UniProt Q05030); test: PDGF receptor autophosphorylation inhibition in cultured rat mesangial cells; type: cell-based; details: PDGF-BB 50 ng/ml
T1 construct: cultured rat mesangial cells which are known to have the PDGF receptor; endogenous in cells; host or cells: primary mesangial cells cultured from glomeruli of Wistar-Kyoto rats (Charles River Japan), more than 5 passages
Procedure, shortened: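 Growth-arrested rat mesangial cells (>5 passages, 0.5% FCS for 3 days) preincubated with drug in 0.1% BSA medium for 1 h at 37° C., then stimulated with 50 ng/ml human PDGF-BB for 10 min. Phosphotyrosine Western blot of ~180 kDa receptor band by densitometry, normalized to PDGF-stimulated (100%) and unstimulated (0%) wells.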

[3] = system: mouse leukemia cells (P388); test: Antitumor effect against mouse leukemia cells (P388), survival of mice; type: in vivo; details: CDF1 mice, 100 mg/kg intraperitoneally, 9 consecutive days
Procedure: P388 cells (1×10^5 cells), mouse leukemia cells obtained from ATCC, were inoculated intraperitoneally into CDF1 mice (obtained from Japan SLC, Inc.), and then the test compound was administered intraperitoneally for 9 consecutive days at the dose of 100 mg/kg. The drug-treated animals survived longer than control animals by 130%.

St-4 (stomach) = test: Antitumor effect against St-4 stomach tumor in nude mice; type: in vivo; details: 100 mg/kg intraperitoneally once a day, 9 days
Procedure: as §1, §2

human glioma (GLO7) = test: Antitumor effect of the compounds against human glioma (GLO7), nude mice xenograft; type: in vivo; details: Mus musculus, po, 216 h, read-out: Tumor growth inhibition rate (TGIR)
Procedure: Analogously to 2, human glioma cells, GLO7 (obtained from the Central Institute for Experimental Animals), was transplanted into nude mice. When the tumor had grown to a volume of about 100 mm^3, the nude mice were divided into several groups of 4 animals so as to equalize the average tumor volumes of each group. The test drug was administered orally to animals in experimental groups once a day for 9 consecutive days at 50 mg/kg, and the vehicle was administered to control animals. The tumor growth inhibition rate (TGIR, %) was calculated from the equation: TGIR=(1-Tx/Cx)×100, in which Cx is the tumor volume in the control mice and Tx is the tumor volume in the drug-treated mice, on day X, when the initial tumor volume at the time treatment was commenced is set 1.

[4] = system: glomerulonephritis associated with mesangial cell growth in rats; test: Effect on nephritis associated with mesangial cell growth in rats (OX-7 induced glomerulonephritis); type: in vivo, Wistar-Kyoto rat; details: 8 days
Procedure: Effect on nephritis associated with mesangial cell growth in rats
Groups of 6 Wistar-Kyoto male rats (7 weeks old, purchased from Charles River Japan, Inc.) were used. OX-7 (prepared according to Pathol. Int., 45, 409 (1995)), a monoclonal antibody against anti-rat Thy1.1, was injected intravenously into the tails of rats at a dose of 1.2 mg/kg to induce glomerulonephritis associated with mesangial cell growth and extracellular matrix accumulation. A test drug suspended in a vehicle, a 1% aqueous cremophor solution, was administered orally 2 times a day starting one day after an OX-7 injection for 8 consecutive days. On day 9, when pathological changes in glomeruli became markedly apparent, the rats were sacrificed and anatomized under anesthesia with ether, and left kidneys were taken out and fixed in formalin. The kidneys were embedded in paraffin and then sectioned thinly, and the sections were stained with a periodic acid-Schiff's reagent. The 20 glomeruli were arbitrarily selected for individual specimens thus prepared, and pathological sclerotic changes were scored as follows:
Average scores for sclerotic change of individual specimens were calculated to quantify the degree of glomerular sclerosis. Average scores of glomerular sclerosis for individual specimens of rat groups administered with the drug were compared with those for control groups administered with the vehicle only to calculate glomerular sclerosis inhibition rates (%). The significance of differences was determined by the Dunnet method after testing homoscedasticity according to the Bartlett method.

[5] = nude mice, 50 mg/kg orally once a day, 9 days

T1 sequence (Q05030 32-1097): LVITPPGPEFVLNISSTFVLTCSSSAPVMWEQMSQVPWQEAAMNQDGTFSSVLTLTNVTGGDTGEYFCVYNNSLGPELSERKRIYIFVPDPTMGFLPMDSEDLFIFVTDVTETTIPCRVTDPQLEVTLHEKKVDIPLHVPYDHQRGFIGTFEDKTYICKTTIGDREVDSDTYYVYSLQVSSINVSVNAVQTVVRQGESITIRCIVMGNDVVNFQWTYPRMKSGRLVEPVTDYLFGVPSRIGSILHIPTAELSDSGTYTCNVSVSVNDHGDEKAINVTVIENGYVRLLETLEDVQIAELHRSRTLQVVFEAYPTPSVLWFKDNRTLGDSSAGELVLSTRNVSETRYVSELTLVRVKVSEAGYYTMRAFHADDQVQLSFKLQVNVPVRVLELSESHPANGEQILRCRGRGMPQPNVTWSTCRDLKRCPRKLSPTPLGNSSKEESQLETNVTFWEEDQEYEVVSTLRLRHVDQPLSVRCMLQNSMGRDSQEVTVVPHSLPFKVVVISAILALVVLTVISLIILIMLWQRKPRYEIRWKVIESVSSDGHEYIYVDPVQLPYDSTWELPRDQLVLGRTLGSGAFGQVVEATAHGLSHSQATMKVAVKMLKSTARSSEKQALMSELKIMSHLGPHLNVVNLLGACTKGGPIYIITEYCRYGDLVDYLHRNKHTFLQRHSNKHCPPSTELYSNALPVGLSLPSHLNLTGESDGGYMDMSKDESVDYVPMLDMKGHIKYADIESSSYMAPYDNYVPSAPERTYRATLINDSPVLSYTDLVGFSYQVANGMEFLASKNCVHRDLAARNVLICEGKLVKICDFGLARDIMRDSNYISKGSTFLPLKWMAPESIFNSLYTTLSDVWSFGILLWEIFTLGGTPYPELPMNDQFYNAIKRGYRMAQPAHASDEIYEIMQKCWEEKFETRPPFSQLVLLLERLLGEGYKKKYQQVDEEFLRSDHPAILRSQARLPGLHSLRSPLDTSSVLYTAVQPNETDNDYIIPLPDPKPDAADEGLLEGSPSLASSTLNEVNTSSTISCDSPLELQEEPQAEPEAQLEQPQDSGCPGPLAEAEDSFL

IC50 (PDGF receptor) [nM] | SMILES | inhibition in vivo at 50 mg/kg (human glioma (GLO7); [5]) [%] | also measured
 | COc1cccc(NC(=O)Nc2ccc(Oc3ccnc4cc(OC)c(OC)cc34)cc2)c1 [Compound 58] |  | Tumor growth inhibition rate (TGIR) (COL-1 (colon)): 74%; Tumor growth inhibition rate (TGIR) (L-27 (lung)): 96%; inhibition in vivo at 50 mg/kg (human glioma (GLO7)): 57%; Tumor growth inhibition rate (TGIR) (St-4 (stomach)): 86%
18 | COc1cc2nccc(Oc3ccc(NC(=O)Nc4ccc(Cl)cc4C)cc3)c2cc1OC [Compound 242, N-(4-Chloro-2-methylphenyl)-N'-{4-[(6,7-dimethoxy-4-quinolyl)oxy]phenyl}urea] | 62 | 
150 | COc1cc2nccc(Oc3ccc(NC(=O)Nc4cccc(Cl)c4)cc3)c2cc1OC [Compound 267, N-(3-Chlorophenyl)-N'-{4-[(6,7-dimethoxy-4-quinolyl)oxy]phenyl}urea] | 65 | 
4 | COc1cc2nccc(Oc3ccc(NC(=O)Nc4ccccc4C)cc3)c2cc1OC [Compound 56, N-{4-[(6,7-Dimethoxy-4-quinolyl)oxy]phenyl}-N'-(2-methylphenyl)urea] | 52 | 
2 | COc1cc2nccc(Oc3ccc(NC(=O)Nc4cccc(F)c4F)cc3)c2cc1OC [Compound 260, N-(2,3-Difluorophenyl)-N'-{4-[(6,7-dimethoxy-4-quinolyl)oxy]phenyl}urea] | 52 | 
14 | COc1cc2nccc(Oc3ccc(NC(=O)Nc4ccc(Br)cc4)cc3)c2cc1OC [Compound 45, N-(4-Bromophenyl)-N'-{4-[(6,7-dimethoxy-4-quinolinyl)oxy]phenyl}urea] | 68 | 
6 | COc1cc2nccc(Oc3ccc(NC(=O)Nc4ccccc4[N+](=O)[O-])cc3)c2cc1OC [Compound 168, N-{4-[(6,7-Dimethoxy-4-quinolyl)oxy]phenyl}-N'-(2-nitrophenyl)urea] | 56 | 
9 | COc1cc2nccc(Oc3ccc(NC(=O)Nc4ccc(Cl)c(N)c4)cc3)c2cc1OC [Compound 244, N-(3-Amino-4-chlorophenyl)-N'-{4-[(6,7-dimethoxy-4-quinolyl)oxy]phenyl}urea] | 73 | 
300 | COc1cc2nccc(Oc3ccc(C(=O)c4ccc(C(C)(C)C)cc4)cc3)c2cc1OC [Compound 32, (4-t-Butylphenyl){4-[(6,7-dimethoxy-4-quinolyl)oxy]phenyl}methanone] |  | Glomerular sclerosis inhibition rate ([4]; 10 mg/kg oral 2 times a day, p < 0.05): 11.7%; Glomerular sclerosis inhibition rate ([4]; 30 mg/kg oral 2 times a day, p < 0.05): 10.2%; Glomerular sclerosis inhibition rate ([4]; 100 mg/kg oral 2 times a day, p < 0.01): 13.7%
4 | COc1cc2nccc(Oc3ccc(NC(=O)Nc4cccc(F)c4)cc3)c2cc1OC [Compound 59] | 82 | 
73 | COc1ccc(Cl)cc1NC(=O)Nc1ccc(Oc2ccnc3cc(OC)c(OC)cc23)cc1 [Compound 227, N-(3-Chloro-6-methoxyphenyl)-N'-{4-[(6,7-dimethoxy-4-quinolyl)oxy]phenyl}urea] | 78 | 

SMILES | IC50 (PDGF receptor) [nM] | inhibition in vivo at 50 mg/kg (human glioma (GLO7); [5]) [%] | also measured
COc1ccc(NC(=O)Nc2ccc(Oc3ccnc4cc(OC)c(OC)cc34)cc2)cc1 [Compound 43, N-(4-Methoxyphenyl)-N'-{4-[(6,7-dimethoxy-4-quinolinyl)oxy]phenyl}urea] | 5 |  | Tumor growth inhibition rate (TGIR) (COL-1 (colon)): 68%; maximum tumor growth inhibition rate (TGIR) [1]: 76%; Number of mice with arthritis/total mice ([2]; 10 mg/kg intraperitoneally): 1/9; Incidence of collagen-induced arthritis ([2]; 10 mg/kg intraperitoneally): 11%; Number of mice with arthritis/total mice ([2]; 100 mg/kg intraperitoneally): 0/10; Incidence of collagen-induced arthritis ([2]; 100 mg/kg intraperitoneally): 0%; Tumor growth inhibition rate (TGIR) (L-27 (lung)): 83%; prolonged survival: drug-treated animals survived longer than control animals by [3]: 130%; Tumor growth inhibition rate (TGIR) (St-4 (stomach)): 78%
